# Tested on: neonatal limb culture
# Assay: X-ray imaging of neonatal mouse hind limb organ culture (effect of bisphosphonates on bone density)
# Type: cell-based, Swiss albino mouse
# Conditions: 1 mM pamidronate in culture medium (well A) vs control (well B); neonatal limb in culture for 40 hours; FIG. 3
# From the text: The method of the invention may be used to monitor the dynamic growth of an articulated skeletal […] by capturing a series of images overtime. In this example, an articulated lower portion (hind limb) of a limb of a neonatal, day-old Swiss albino mouse was removed and cultured in a well plate. The limb was scraped with a scalpel to abrade any skin and flesh sufficiently to allow an organ culture medium to reach the skeletal members. The scraped limb was superficially embedded in 1% agarose. The medium used for culture was 4 ml of minimum essential medium (Delbecco's Modified Eagle Medium), supplemented with 1 mM β glycerophosphate, ascorbic acid, 0.2% bovine serum albumin and antibiotics. The antibiotics contained 100 units/ml penicillin, and 100 μg/ml streptomycin. The skeletal members of the limbs continued to grow within the cultures and were imaged with X-rays (Time-Lapse-3 hrs; 11 to […] using a multi-modal system as previously described). Bone growth and mineral deposition could be measured, as could X-ray and column densities. Because the limb was articulated, the growth of individual skeletal members was influenced by neighboring members, just as in the case of growth in a living animal. The analytical X-ray imaging methodology according to the invention allows measurement of the growth of skeletal members of a neonatal mouse limb grown in vitro in organ culture. […]
compound,measurement,value
"NCCC(O)(P(=O)(O)O)P(=O)(O)O [pamidronate, Pamidronate]",bone density and size versus control (X-ray images),differences in bone density and size are observable

# Reference: patent US20100227356A1, “METHODS FOR ASSESSING EFFECTS ON SKELETAL GROWTH” (priority 2008, published 2010)
